According to publication PMC9804489, “Phase 1/1b Studies of UCB0599, an Oral Inhibitor of α‐Synuclein Misfolding, Including a Randomized Study in Parkinson's Disease” (Movement Disorders, 2022):
Like-named read-outs stand apart in the source and are kept apart here.

Columns and labels:
[1] = UP0030 phase 1 study: plasma pharmacokinetics of UCB0599 and its metabolites; format: in vivo, human; conditions: for AUC: read-out: AUC, GeoMean; for Cmax: read-out: C max, GeoMean
Experimental: Statistical evaluations for all three studies were performed using SAS version 9.4 (SAS, Cary, NC, USA), and PK data were analyzed using Phoenix WinNonlin software (Certara, Princeton, NJ, USA). Continuous variables were summarized with number of participants, mean, standard deviation, median, minimum and maximum, and confidence intervals (CI) for the mean. Categorical variables were summarized with frequency counts and percentages.

[2] = UP0030 phase 1 SAD/MAD study: safety and tolerability in healthy participants
Experimental: Part 1 (Fig. S1A) was a randomized, subject‐ and investigator‐blind, placebo‐controlled study in healthy older participants (HOP). Part 2 (Fig. S1B) was an open‐label, two‐way crossover study in HPs.
Part 1 included five cohorts (1, 2, 1b, 2b, and 3) and evaluated SADs (SAD: 90, 180, 360, and 450 mg) and MADs of UCB0599 (MAD: 180 and 360 mg/day). […] The first two doses were administered as a two‐way crossover (under fasting/fed or fed/fasting conditions), and the third dose was administered to both arms under fasted conditions with 200 mg of ITZ (once daily, days −3 to 2) to assess potential drug–drug interactions.
Eligible participants were aged ≥18 years (part 1, 55–75 years for HOP; part 2, <55 years) with a body mass index (BMI) of 18–32 kg/m^2 and a body weight of ≥50 kg. The study was conducted at a phase 1 unit in Germany.
The primary objective was to evaluate the safety and tolerability of UCB0599 after the administration of single and multiple doses in HOP. The secondary objectives are to evaluate the PK of UCB0599 and its desmethyl and N‐oxide metabolites after the administration of single and multiple doses in HOP and to evaluate the PK, safety, and tolerability of UCB0599 in HPs when given a single dose alone, with food or with ITZ.
Safety variables included the incidence of any treatment‐emergent adverse event (TEAE), changes in vital signs, laboratory assessments, 12‐lead electrocardiogram (ECG) and Holter ECG assessment, and the Columbia Suicide Severity Rating Scale (C‐SSRS). PK variables included maximum plasma concentration (C max), time of maximum concentration (t max), AUC (area under the plasma concentration–time curve) from time 0 to last quantifiable concentration (AUC0–t ), AUC from time 0 to infinity (AUC0–inf), apparent total body clearance, apparent volume of distribution, and apparent elimination half‐life (t 1/2).

[3] = UP0078 phase 1 food/ITZ study: safety and tolerability in healthy participants
Experimental: UP0078 was a phase 1, open‐label study to evaluate the potential effect of food on the bioavailability of UCB0599 and to test the potential effect of ITZ on the disposition of UCB0599 in HPs. A randomized, two‐way crossover design with a third fixed‐treatment period was used (Fig. S2).
Participants received a single 180 mg dose of UCB0599 on three separate occasions, with a washout period of ≥7 days between doses. The first dose was administered under fasted conditions, the second under fed conditions, and the third under fasted conditions co‐administered with ITZ (200 mg once daily, days 15–22).
The study was conducted at a phase 1 unit in the United Kingdom.
The primary objectives were to assess the potential effect of food intake (standard high‐fat, high‐calorie meal) on single‐dose PK of UCB0599 and to evaluate and compare the single‐dose PK of UCB0599 in the presence or absence of ITZ. The secondary and exploratory objectives were to evaluate the safety and tolerability of UCB0599 under fasted and fed conditions, and with/without concomitant administration of ITZ; to evaluate UCB0599 metabolite plasma PK in the presence or absence of ITZ; and to assess the potential effect of food intake on the single‐dose PK of UCB0599 metabolites.
Primary PK variables were AUC0–t , AUC0–inf, C max, and t max. Primary safety variables were the incidence of TEAEs and serious TEAEs. […]

[4] = human, plasma, oral, UP0030 single dose 90 mg
[5] = human, plasma, oral, UP0030 single dose 450 mg
[6] = UP0030, UCB0599 180 mg/day, n=17
[7] = UP0030 part 2, fasted UCB0599 360 mg, n=3
[8] = UP0030 part 2, fed UCB0599 360 mg, n=3

Structure (SMILES): CCCC[C@H](Cc1c[nH]c2ccccc12)NC(=O)c1cnc(N2CCN(C)CC2)s1 [UCB0599]
- Plasma steady‐state concentration achieved, on average ([1]; UP0030, 180 mg/day): ≤ 7 days
- Tmax ([1]; human, plasma, oral, UP0030, UCB0599 180 mg/day, read-out: Median t max after multiple doses): 1.5 to 3 h
- Tmax ([1]; human, plasma, oral, UP0030 single ascending doses 90–450 mg, read-out: t max range): 1.5 to 2 h
- half-life ([1]; human, plasma, oral, UP0030 single ascending doses of UCB0599, across dose groups, read-out: Apparent elimination half‐life, GeoMean range): 636 to 780 min
- AUC [1, 4]: 3220 ng·h/mL
- Cmax [1, 4]: 374 ng/mL
- AUC [1, 5]: 17000 ng·h/mL
- Cmax [1, 5]: 1810 ng/mL
- Hypersensitivity reactions ([2]; UP0030): 2 n
- Treatment‐related patterns for vital signs, ECG tracings, or laboratory findings ([2]; UP0030): no discernible UCB0599 treatment‐related patterns
- TEAE Diarrhea ([2]; UP0030, UCB0599 90 mg, n=9): 0 n (%) […]
- TEAE Drug hypersensitivity ([2]; UP0030, UCB0599 90 mg, n=9): 0 n (%) […]
- TEAE Fatigue ([2]; UP0030, UCB0599 90 mg, n=9): 0 n (%) […]
- TEAE Nasopharyngitis ([2]; UP0030, UCB0599 90 mg, n=9): 0 n (%) […]
- TEAE Diarrhea ([2]; UP0030, UCB0599 180 mg, n=17): 0 n (%) […]
- TEAE Drug hypersensitivity ([2]; UP0030, UCB0599 180 mg, n=17): 0 n (%) […]
- TEAE Fatigue ([2]; UP0030, UCB0599 180 mg, n=17): 0 n (%) […]
- TEAE Headache ([2]; UP0030, UCB0599 180 mg, n=17): 0 n (%) […]
- TEAE Myalgia ([2]; UP0030, UCB0599 180 mg, n=17): 0 n (%) […]
- TEAE Nasopharyngitis ([2]; UP0030, UCB0599 180 mg, n=17): 0 n (%) […]
- TEAE Postlumbar puncture syndrome ([2]; UP0030, UCB0599 180 mg, n=17): 0 n (%) […]
- TEAE Diarrhea [2, 6]: 0 n (%) […]
- TEAE Fatigue [2, 6]: 0 n (%) […]
- TEAE Postlumbar puncture syndrome [2, 6]: 0 n (%) […]
- TEAE Presyncope [2, 6]: 0 n (%) […]
- TEAE Drug hypersensitivity ([2]; UP0030, UCB0599 360 mg, n=18): 0 n (%) […]
- TEAE Myalgia ([2]; UP0030, UCB0599 360 mg, n=18): 0 n (%) […]
- TEAE Nasopharyngitis ([2]; UP0030, UCB0599 360 mg, n=18): 0 n (%) […]
- TEAE Presyncope ([2]; UP0030, UCB0599 360 mg, n=18): 0 n (%) […]
- TEAE Drug hypersensitivity ([2]; UP0030, UCB0599 450 mg, n=9): 0 n (%) […]
- TEAE Fatigue ([2]; UP0030, UCB0599 450 mg, n=9): 0 n (%) […]
- TEAE Myalgia ([2]; UP0030, UCB0599 450 mg, n=9): 0 n (%) […]
- TEAE Presyncope ([2]; UP0030, UCB0599 450 mg, n=9): 0 n (%) […]
- TEAE Puncture site pain ([2]; UP0030, UCB0599 450 mg, n=9): 0 n (%) […]
- Time to resolution of HSRs ([2]; UP0030, after oral antihistamines): ≤ 3 days
- Participants reporting serious TEAEs ([2]; UP0030 part 1): 4.4%
- Deaths ([2]; UP0030 part 1, all UCB0599 N=45): 0 n (%) […]
- Discontinuations due to drug hypersensitivity ([2]; UP0030 part 1, total UCB0599): 2 participants
- Participants reporting TEAEs ([2]; UP0030 part 1, total UCB0599): 66.7%
- Participants reporting severe TEAEs ([2]; UP0030 part 1, total UCB0599): 6.7%
- Participants who discontinued due to TEAEs ([2]; UP0030 part 1, total UCB0599): 11.1%
- Any TEAEs [2, 7]: 0 n (%) […]
- Deaths [2, 7]: 0 n (%) […]
- Discontinuations due to TEAEs [2, 7]: 0 n (%) […]
- Drug‐related TEAEs [2, 7]: 0 n (%) […]
- Serious TEAEs [2, 7]: 0 n (%) […]
- Severe TEAEs [2, 7]: 0 n (%) […]
- Participants reporting TEAEs ([2]; UP0030 part 2, fed UCB0599 360 mg): 33.3%
- Deaths [2, 8]: 0 n (%) […]
- Discontinuations due to TEAEs [2, 8]: 0 n (%) […]
- Drug‐related TEAEs [2, 8]: 0 n (%) […]
- Serious TEAEs [2, 8]: 0 n (%) […]
- Severe TEAEs [2, 8]: 0 n (%) […]

Structure (SMILES): CCC(C)n1ncn(-c2ccc(N3CCN(c4ccc(OCC5COC(Cn6cncn6)(c6ccc(Cl)cc6Cl)O5)cc4)CC3)cc2)c1=O (stereo not drawn) [ITZ, itraconazole, reference compound]
- TEAE considered related to the substance [3]: 9.1%
